Laboratory results reported in patent US10752587B2, “Homobispiperidinyl derivatives as liver X receptor beta agonists, compositions and their use” (Merck Sharp & Dohme Corp., priority 2015, dated 2020).
Read-outs that look alike come from different tables or passages of the source.

Key:
[1] = target: T1, glutathione-S-transferase (GST) tagged LXRbeta LBD (ligand binding domain) (Homo sapiens, UniProt P55055); test: LanthaScreen TR-FRET Liver X Receptor Coactivator Assay, co-activator recruitment to LXRbeta LBD; assay type: biochemical; details: for Emax: read-out: LXR beta Activity @ max dose (%); for EC50: potency (Inflection Point, IP), co-activator recruitment to LXRbeta LBD, in relation to T0901317
T1 construct: purchased Invitrogen pv4658.pps
T1 sequence (P55055 222-460 limits assumed): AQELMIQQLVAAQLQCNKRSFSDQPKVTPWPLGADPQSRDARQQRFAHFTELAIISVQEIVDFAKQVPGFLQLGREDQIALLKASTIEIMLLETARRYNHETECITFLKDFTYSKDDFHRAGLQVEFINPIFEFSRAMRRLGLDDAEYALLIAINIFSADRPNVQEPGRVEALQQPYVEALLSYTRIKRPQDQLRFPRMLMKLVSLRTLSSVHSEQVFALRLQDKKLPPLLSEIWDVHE
In short: (§1)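 LXRα- or LXRβ-LBD protein was added to test compounds, then fluorescein-labelled coactivator peptide plus Tb-anti-GST antibody; after room-temperature incubation, TR-FRET was read. Inflection point (IP) and Emax were expressed relative to the dual agonist reference T0901317.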

[2] = target: T2, glutathione-S-transferase (GST) tagged LXRalpha LBD (ligand binding domain) (Homo sapiens, UniProt Q13133); test: LanthaScreen TR-FRET Liver X Receptor Coactivator Assay, co-activator recruitment to LXRalpha LBD; assay type: biochemical; details: for Emax: read-out: LXR alpha Activity @ max dose (%); for EC50 / LXR alpha IP (nM): potency (Inflection Point, IP), co-activator recruitment to LXRalpha LBD, in relation to T0901317
T2 construct: purchased Invitrogen pv4655
T2 sequence (Q13133 209-447 limits assumed): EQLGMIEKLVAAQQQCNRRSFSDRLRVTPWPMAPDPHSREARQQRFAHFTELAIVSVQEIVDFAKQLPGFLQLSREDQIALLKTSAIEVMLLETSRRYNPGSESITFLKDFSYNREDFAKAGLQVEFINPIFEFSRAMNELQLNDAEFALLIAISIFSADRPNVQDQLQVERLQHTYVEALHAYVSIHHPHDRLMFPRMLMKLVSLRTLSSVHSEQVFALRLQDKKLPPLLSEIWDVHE
In short: as §1

[3] = efficacy at max dose, in relation to reference dual agonist T0901317

SMILES | Emax [1, 3] | EC50 ([1]; read-out: LXR beta IP) | Emax [2, 3] | EC50 ([2]; read-out: LXR alpha IP) | LXR alpha IP (nM) [2] | EC50 ([1]; LXR beta IP (nM)) | Emax [1] | EC50 ([2]; LXR alpha IP (nM)) | Emax [2]
CN(C)C(=O)c1ccc(N2CCC(CC3(C)CCN(C(=O)[C@](O)(c4ccccc4)C(F)(F)F)CC3)CC2)cc1Cl [Example 2-44, 2-chloro-N,N-dimethyl-4-[4-({4-methyl-1-[(2R)-3,3,3-trifluoro-2-hydroxy-2-phenyl-propanoyl]piperidin-4-yl}methyl)piperidin-1-yl]benzamide] | 37% | 1 nM | 20% | 32 nM |  |  |  |  | 
COc1cccc([C@@](N)(C(=O)N2CCC(CC3CCN(c4ccc(C(=O)N(C)C)c(Cl)c4)CC3)CC2)C(F)(F)F)c1 [Example 2-103, 4-[4-({1-[(2R)-2-amino-3,3,3-trifluoro-2-(3-methoxyphenyl)propanoyl]piperidin-4-yl}methyl)piperidin-1-yl]-2-chloro-N,N-dimethyl-benzamide] | 16% | 181 nM | 0% |  | NO IP |  |  |  | 
CNC(=O)c1ccc(N2CCC(CC3CCN(C(=O)C4(c5ccccc5F)CCCC4)CC3)CC2)cc1Cl [Example 7-34, 2-chloro-4-{4-[(1-{[1-(2-fluorophenyl)cyclopentyl]carbonyl}piperidin-4-yl)methyl]piperidin-1-yl}-N-methylbenzamide] | 82% | 169 nM | 19% | 2190 nM |  |  |  |  | 
COc1cccc([C@@](O)(C(=O)N2CCC(CC3CCN(c4ccc(C(=O)N(C)C)c(OC)n4)CC3)CC2)C(F)(F)F)c1 [Example 7-19, 2-methoxy-N,N-dimethyl-6-[4-({1-[(2R)-3,3,3-trifluoro-2-hydroxy-2-(3-methoxyphenyl)propanoyl]piperidin-4-yl}methyl)piperidin-1-yl]pyridine-3-carboxamide] | 61% | 7 nM | 3% |  | NO IP |  |  |  | 
CCc1cccc([C@@](O)(C(=O)N2CC(CC3CCN(c4ccc(C(=O)N(C)C)c(Cl)n4)CC3)C2)C(F)(F)F)c1 [Example 7-43, 2-chloro-6-[4-({1-[(2R)-2-(3-ethylphenyl)-3,3,3-trifluoro-2-hydroxypropanoyl]azetidin-3-yl}methyl)piperidin-1-yl]-N,N-dimethylpyridine-3-carboxamide] | 80% | 33 nM | 16% |  | NO IP |  |  |  | 
CCc1cccc([C@@](O)(C(=O)N2CCC(C)(CC3CCN(c4ccc(C(=O)N(C)C)c(Cl)c4)CC3)CC2)C(F)(F)F)c1 [Example 2-52, 2-chloro-4-[4-({1-[(2R)-2-(3-ethyl-phenyl)-3,3,3-trifluoro-2-hydroxy-propanoyl]-4-methyl-piperidin-4-yl}methyl)piperidin-1-yl]-N,N-dimethyl-benzamide] | 20% | 15 nM | 0% |  | NO IP |  |  |  | 
COc1cccc([C@@](O)(C(=O)N2CCC(CC3CCN(c4ccc(C(=O)N(C)C)c(Cl)n4)CC3)CC2)C(F)(F)C(F)(F)F)c1 [Example 7-79, 2-chloro-N,N-dimethyl-6-[4-({1-[(2R)-3,3,4,4,4-pentafluoro-2-hydroxy-2-(3-methoxyphenyl)butanoyl]piperidin-4-yl}methyl)piperidin-1-yl]pyridine-3-carboxamide] | 86% | 9 nM | 22% | 429 nM |  |  |  |  | 
CN(C)C(=O)c1ccc(N2CCC(CC3CCN(C(=O)[C@](O)(c4ccccc4)C4CCCC4)CC3)CC2)nc1Cl [Example 7-98, 2-chloro-6-[4-({1-[(2R)-2-cyclopentyl-2-hydroxy-2-phenylacetyl]piperidin-4-yl}methyl)piperidin-1-yl]-N,N-dimethylpyridine-3-carboxamide] |  |  |  |  |  | 74 nM | 76% | 1090 nM | 19%
COc1cccc(C(=O)C(=O)N2CCC(CC3CCN(c4ccc(C(=O)N(C)C)c(Cl)c4)CC3)CC2)c1 [Example 2-104, 2-chloro-4-[4-({1-[(3-methoxyphenyl) (oxo)acetyl]piperidin-4-yl}methyl)piperidin-1-yl]-N,N-dimethyl-benzamide] | 31% | 409 nM | 3% |  | NO IP |  |  |  | 
Cc1cc(N2CCC(CC3CCN(C(=O)[C@](O)(c4cc(Cl)cc(Cl)c4)C(F)(F)F)CC3)CC2)ccc1C(=O)N(C)C [Example 2-154, 4-[4-({1-[(2R)-2-(3,5-dichloro-phenyl)-3,3,3-trifluoro-2-hydroxy-propanoyl]piperidin-4-yl}methyl)piperidin-1-yl]-N,N,2-trimethyl-benzamide] | 54% | 23 nM | 6% |  | NO IP |  |  |  | 
COc1cc(F)cc(C(O)(C(=O)N2CCC(CC3CCN(c4ccc(C(=O)N(C)C)c(Cl)n4)CC3)CC2)C(F)(F)F)c1 (stereo not drawn) [Example 7-89, 2-chloro-N,N-dimethyl-6-[4-({1-[3,3,3-trifluoro-2-(3-fluoro-5-methoxyphenyl)-2-hydroxypropanoyl]piperidin-4-yl}methyl)piperidin-1-yl]pyridine-3-carboxamide] | 86% | 6 nM | 19% | 112 nM |  |  |  |  | 
CN(C)C(=O)c1ccc(N2CCC(CC3CCN(C(=O)C4(c5ccccc5Cl)CC4)CC3)CC2)nc1Cl [Example 7-53, 2-chloro-6-{4-[(1-{[1-(2-chlorophenyl)cyclopropyl]carbonyl}piperidin-4-yl)methyl]piperidin-1-yl}-N,N-dimethylpyridine-3-carboxamide] | 118% | 31 nM | 45% | 571 nM |  |  |  |  | 
O=C(c1ccc(N2CCC(CC3CCN(C(=O)[C@](O)(c4ccccc4)C(F)(F)F)CC3)CC2)cc1Cl)N1CCC[C@H]1CO [Example 4-3, (2R)-3-(4-{[1-(3-chloro-4-{[(2S)-2-(hydroxy-methyl)pyrrolidin-1-yl]carbonyl}phenyl)piperidin-4-yl]methyl}piperidin-1-yl)-1,1,1-trifluoro-3-oxo-2-phenylpropan-2-ol] | 63% | 5 nM | 30% | 50 nM |  |  |  |  | 
CC(C)Oc1cccc([C@@](O)(C(=O)N2CC(CC3CCN(c4ccc(C(=O)N(C)C)c(Cl)n4)CC3)C2)C(F)(F)F)c1 [Example 7-42, 2-chloro-N,N-dimethyl-6-{4-[(1-{(2R)-3,3,3-trifluoro-2-hydroxy-2-[3-(1-methylethoxy)phenyl]propanoyl}azetidin-3-yl)methyl]piperidin-1-yl}pyridine-3-carboxamide] | 83% | 30 nM | 9% |  | NO IP |  |  |  | 
CN(C)C(=O)c1ccc(N2CCC(CC3CCN(C(=O)[C@@](O)(c4cc(F)cc(Cl)c4)C(F)(F)F)CC3)CC2)nc1Cl [Example 7-113, 2-chloro-6-[4-({1-[(2S)-2-(3-chloro-5-fluorophenyl)-3,3,3-trifluoro-2-hydroxypropanoyl]piperidin-4-yl}methyl)piperidin-1-yl]-N,N-dimethylpyridine-3-carboxamide] | 125% | 34 nM | 31% | 1610 nM |  |  |  |  | 
Cc1cccc([C@@](O)(C(=O)N2CCC(CC3CCN(c4ccc(C(=O)N(C)C)c(C)c4)CC3)CC2)C(F)(F)F)c1 [Example 2-157, N,N,2-trimethyl-4-[4-({1-[(2R)-3,3,3-trifluoro-2-hydroxy-2-(3-methylphenyl)propanoyl]piperidin-4-yl}methyl)piperidin-1-yl]benzamide] | 43% | 16 nM | 9% |  | NO IP |  |  |  | 
CN(C)C(=O)c1ccc(N2CCC(CC3(C)CCN(C(=O)[C@](O)(c4cccc(OC(F)(F)F)c4)C(F)(F)F)CC3)CC2)cc1Cl [Example 2-51, 2-chloro-N,N-dimethyl-4-{4-[(4-methyl-1-{(2R)-3,3,3-trifluoro-2-hydroxy-2-[3-(trifluoro-methoxy)phenyl]propanoyl}piperidin-4-yl)methyl]piperidin-1-yl}benzamide] | 57% | 32 nM | 11% |  | NO IP |  |  |  | 
Cc1cc(Cl)cc([C@@](O)(C(=O)N2CCC(CC3CCN(c4ccc(C(=O)N(C)C)c(Cl)c4)CC3)CC2)C(F)(F)F)c1 [Example 2-111, 2-chloro-4-[4-({1-[(2R)-2-(3-chloro-5-methylphenyl)-3,3,3-trifluoro-2-hydroxy-propanoyl]piperidin-4-yl}methyl)piperidin-1-yl]-N,N-dimethyl-benzamide] | 28% | 7 nM | 0% |  | NO IP |  |  |  | 
